Results reported in ChEMBL document CHEMBL4190202, “Gunnilactams A-C, Macrocyclic Tetralactams from the Mycelial Culture of the Entomogenous Fungus Paecilomyces gunnii” (J Nat Prod, 2017).

What was measured:
LNCaP C4-2B = test: Cytotoxicity against human C4-2B cells after 72 hrs by MTT assay; format: functional, cell-based
DU-145 = test: Growth inhibition of human DU145 cells at 2 uM after 72 hrs by MTT assay relative to control; format: functional; conditions: DU-145, 72 h, read-out: GI

`C[C@@H]1NC(=O)/C=C/[C@@H](O)CC[C@H](C)NC(=O)[C@H]2C[C@]1(O)NC1=C2C(=O)N[C@@H](C)C1` showed an IC50 (LNCaP C4-2B) of 5.4 µM and an inhibition of growth at 2 µM (DU-145) of 4.5%.
